Measurements: PubChem BioAssay (NCI)
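How tested: cells in 96-well plates exposed to compound for 48 hours at five concentrations. TGI: total growth inhibition.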

Tests used:
Test in all cases: NCI anticancer screen, dose series, 48 h
U251 CNS = test system: U251 CNS
EKVX NSCLC = test system: EKVX NSCLC
COLO 205 colon = test system: COLO 205 colon
SNB-19 CNS = test system: SNB-19 CNS
SW-620 colon = test system: SW-620 colon
HOP-62 NSCLC = test system: HOP-62 NSCLC
SNB-75 CNS = test system: SNB-75 CNS
T-47D breast = test system: T-47D breast
MDA-N = test system: MDA-N
KM12 colon = test system: KM12 colon
OVCAR-8 ovarian = test system: OVCAR-8 ovarian
NCI-H522 lung = test system: NCI-H522 lung
CAKI-1 renal = test system: CAKI-1 renal
HCT-116 colon = test system: HCT-116 colon
MCF7 breast = test system: MCF7 breast
RXF 393 renal = test system: RXF 393 renal
NCI/ADR-RES ovarian = test system: NCI/ADR-RES ovarian
PC-3 prostate = test system: PC-3 prostate
UACC-62 melanoma = test system: UACC-62 melanoma
TK-10 renal = test system: TK-10 renal
RPMI-8226 leukemia = test system: RPMI-8226 leukemia
HL-60(TB) leukemia = test system: HL-60(TB) leukemia
SK-MEL-5 melanoma = test system: SK-MEL-5 melanoma
OVCAR-3 ovarian = test system: OVCAR-3 ovarian
OVCAR-5 ovarian = test system: OVCAR-5 ovarian
MDA-MB-231 breast = test system: MDA-MB-231 breast
SK-MEL-28 melanoma = test system: SK-MEL-28 melanoma
DU-145 prostate = test system: DU-145 prostate
NCI-H23 lung = test system: NCI-H23 lung
IGROV1 ovarian = test system: IGROV1 ovarian
A549 NSCLC = test system: A549 NSCLC
LOX IMVI melanoma = test system: LOX IMVI melanoma
HT29 colon = test system: HT29 colon
ACHN renal = test system: ACHN renal
NCI-H226 lung = test system: NCI-H226 lung
HCT-15 colon = test system: HCT-15 colon
UO-31 renal = test system: UO-31 renal
K-562 leukemia = test system: K-562 leukemia
HS 578T breast = test system: HS 578T breast
CCRF-CEM leukemia = test system: CCRF-CEM leukemia
MALME-3M melanoma = test system: MALME-3M melanoma
SF-268 CNS = test system: SF-268 CNS
SF-539 CNS = test system: SF-539 CNS
UACC-257 melanoma = test system: UACC-257 melanoma
786-0 renal = test system: 786-0 renal
MOLT-4 leukemia = test system: MOLT-4 leukemia
SF-295 CNS = test system: SF-295 CNS
SN12C renal = test system: SN12C renal
NCI-H460 lung = test system: NCI-H460 lung
MDA-MB-435 = test system: MDA-MB-435
HCC-2998 colon = test system: HCC-2998 colon
A498 renal = test system: A498 renal
M14 melanoma = test system: M14 melanoma
HOP-92 NSCLC = test system: HOP-92 NSCLC
SK-MEL-2 melanoma = test system: SK-MEL-2 melanoma
OVCAR-4 ovarian = test system: OVCAR-4 ovarian
SR leukemia = test system: SR leukemia

Measured: TGI

O=C(Cn1c(=O)ccn(C2OC(CO)C(O)C2F)c1=O)c1ccc(F)cc1 (centres undefined)
> 100 µM: U251 CNS | EKVX NSCLC | COLO 205 colon | SNB-19 CNS | SW-620 colon | HOP-62 NSCLC | SNB-75 CNS | T-47D breast | MDA-N | KM12 colon | OVCAR-8 ovarian | NCI-H522 lung | CAKI-1 renal | HCT-116 colon | MCF7 breast | RXF 393 renal | NCI/ADR-RES ovarian | PC-3 prostate | UACC-62 melanoma | TK-10 renal | RPMI-8226 leukemia | HL-60(TB) leukemia | SK-MEL-5 melanoma | OVCAR-3 ovarian | OVCAR-5 ovarian | MDA-MB-231 breast | SK-MEL-28 melanoma | DU-145 prostate | NCI-H23 lung | IGROV1 ovarian | A549 NSCLC | LOX IMVI melanoma | HT29 colon | ACHN renal | NCI-H226 lung | HCT-15 colon | UO-31 renal | K-562 leukemia | HS 578T breast | CCRF-CEM leukemia | MALME-3M melanoma | SF-268 CNS | SF-539 CNS | UACC-257 melanoma | 786-0 renal | MOLT-4 leukemia | SF-295 CNS | SN12C renal | NCI-H460 lung | MDA-MB-435

CCOC(=O)C1(C(=O)OCC)C[C@]23OCCC(=O)[C@H]2[C@H]2C(=O)OC(C)(C)O[C@]23C1
> 100 µM: U251 CNS | EKVX NSCLC | HCC-2998 colon | COLO 205 colon | SNB-19 CNS | SW-620 colon | HOP-62 NSCLC | SNB-75 CNS | T-47D breast | MDA-N | KM12 colon | OVCAR-8 ovarian | NCI-H522 lung | CAKI-1 renal | HCT-116 colon | MCF7 breast | NCI/ADR-RES ovarian | A498 renal | PC-3 prostate | UACC-62 melanoma | TK-10 renal | RPMI-8226 leukemia | HL-60(TB) leukemia | M14 melanoma | SK-MEL-5 melanoma | OVCAR-3 ovarian | OVCAR-5 ovarian | MDA-MB-231 breast | SK-MEL-28 melanoma | DU-145 prostate | NCI-H23 lung | HOP-92 NSCLC | IGROV1 ovarian | A549 NSCLC | SK-MEL-2 melanoma | LOX IMVI melanoma | HT29 colon | ACHN renal | OVCAR-4 ovarian | HCT-15 colon | UO-31 renal | SR leukemia | HS 578T breast | CCRF-CEM leukemia | MALME-3M melanoma | SF-268 CNS | SF-539 CNS | UACC-257 melanoma | 786-0 renal | MOLT-4 leukemia | SF-295 CNS | SN12C renal | NCI-H460 lung | MDA-MB-435
